What all share (format): functional
Assay [1] has as its system Mycolicibacterium smegmatis. Nature of the assay: Antimicrobial activity against Mycobacterium smegmatis ATCC 14468 for 17 to 48 hrs by MTT assay.
Another assay deals with Pseudomonas aeruginosa. The assay can be described thus: Antimicrobial activity against Pseudomonas aeruginosa ATCC 9721 for 17 to 48 hrs by MTT assay. For orientation: Tetrazolium assays rely on reduction of a dye to a coloured formazan, in cell work by metabolically active cells.
A further assay has as its system Bacillus subtilis. Nature of the assay: Antimicrobial activity against Bacillus subtilis ATCC 6051 for 17 to 48 hrs by MTT assay.
A further assay concerns Escherichia coli. Nature of the assay: Antimicrobial activity against Escherichia coli ATCC 11775 for 17 to 48 hrs by MTT assay.
The subject of a further assay is Staphylococcus aureus. The assay can be described thus: Antimicrobial activity against Staphylococcus aureus ATCC 12600 for 17 to 48 hrs by MTT assay.

The structures appear in SMILES notation. ≈ marks a conversion by molar mass, not a printed value.

`CN[C@@H]1[C@@H](O[C@H]2O[C@H](CO)[C@@H](N)[C@H](O)[C@H]2O)O[C@H]2C[C@@H](N)[C@@H](O[C@H]3[C@H](O)[C@@H](O)[C@H](N)C[C@@H]3N)O[C@@H]2[C@@H]1O`: the MIC (usually the smallest concentration in the dilution series that meets the test's criterion for growth inhibition) in assay [1] amounted to 0.39 µg/mL (≈ 0.723 µM).
In the case of `CC[C@@H]1[C@@H](C)O[C@@](OC)([C@@H](C)[C@H](O)[C@H](C)[C@H]2OC(=O)/C=C/C=C/[C@H](C)[C@@H]([C@@H](C)[C@@H](O)[C@H](C)[C@@]3(O)C[C@@H](O[C@H]4C[C@H](O)[C@H](O)[C@H](C)O4)[C@H](CC)[C@@H](C)O3)OC(=O)/C=C/C=C/[C@@H]2C)C[C@H]1O[C@H]1C[C@H](O)[C@H](O)[C@H](C)O1`, the MIC against Pseudomonas aeruginosa is > 100 µg/mL; against Bacillus subtilis, > 100 µg/mL; in the assay with Escherichia coli, > 100 µg/mL; in assay [1], > 100 µg/mL; in the assay on Staphylococcus aureus, 1.56 µg/mL (≈ 1.5 µM).
With `CC[C@@H]1[C@@H](C)O[C@@](OC)([C@@H](C)[C@H](O)[C@H](C)[C@H]2OC(=O)/C(C)=C/C=C/[C@H](C)[C@@H]([C@@H](C)[C@@H](O)[C@H](C)[C@@]3(OC)C[C@@H](O[C@H]4C[C@H](O)[C@H](O)[C@H](C)O4)[C@H](CC)[C@@H](C)O3)OC(=O)/C(C)=C/C=C/[C@@H]2C)C[C@H]1O[C@H]1C[C@H](O)[C@H](O)[C@H](C)O1`, the MIC with Pseudomonas aeruginosa is > 100 µg/mL; in the assay on Bacillus subtilis it was > 100 µg/mL; against Escherichia coli, > 100 µg/mL; in assay [1], > 100 µg/mL; with Staphylococcus aureus, 3.13 µg/mL (≈ 2.89 µM).
As for `CC[C@@H]1[C@@H](C)O[C@@](O)([C@@H](C)[C@H](O)[C@H](C)[C@H]2OC(=O)/C=C/C=C/[C@H](C)[C@@H]([C@@H](C)[C@@H](O)[C@H](C)[C@@]3(O)C[C@@H](O[C@H]4C[C@H](O)[C@H](O)[C@H](C)O4)[C@H](CC)[C@@H](C)O3)OC(=O)/C(C)=C/C=C/[C@@H]2C)C[C@H]1O[C@H]1C[C@H](O)[C@H](O)[C@H](C)O1`, the MIC with Pseudomonas aeruginosa is > 100 µg/mL; with Bacillus subtilis it was > 100 µg/mL; against Escherichia coli it was > 100 µg/mL; in assay [1] it was 6.25 µg/mL (≈ 6.01 µM); against Staphylococcus aureus it was 0.78 µg/mL (≈ 0.751 µM).
Take `CC[C@@H]1[C@@H](C)O[C@@](OC)([C@@H](C)[C@H](O)[C@H](C)[C@H]2OC(=O)/C=C/C=C/[C@H](C)[C@@H]([C@@H](C)[C@@H](O)[C@H](C)[C@@]3(OC)C[C@@H](O[C@H]4C[C@H](O)[C@H](O)[C@H](C)O4)[C@H](CC)[C@@H](C)O3)OC(=O)/C(C)=C/C=C/[C@@H]2C)C[C@H]1O[C@H]1C[C@H](O)[C@H](O)[C@H](C)O1`: the MIC was > 100 µg/mL against Pseudomonas aeruginosa; > 100 µg/mL in the assay with Bacillus subtilis; > 100 µg/mL in the assay with Escherichia coli; 6.25 µg/mL (≈ 5.86 µM) in assay [1]; 1.56 µg/mL (≈ 1.46 µM) with Staphylococcus aureus.
Turning to `CC[C@@H]1[C@@H](C)O[C@@](O)([C@@H](C)[C@H](O)[C@H](C)[C@H]2OC(=O)/C=C/C=C/[C@H](C)[C@@H]([C@@H](C)[C@@H](O)[C@H](C)[C@@]3(O)C[C@@H](O[C@H]4C[C@H](O)[C@H](O)[C@H](C)O4)[C@H](CC)[C@@H](C)O3)OC(=O)/C=C/C=C/[C@@H]2C)C[C@H]1O[C@H]1C[C@H](O)[C@H](O)[C@H](C)O1`, the MIC against Pseudomonas aeruginosa is > 100 µg/mL; against Bacillus subtilis, > 100 µg/mL; in the assay with Escherichia coli it was > 100 µg/mL; in assay [1] it was > 100 µg/mL; in the assay with Staphylococcus aureus, 0.78 µg/mL (≈ 0.761 µM).
On to `CC[C@@H]1[C@@H](C)O[C@@](OC)([C@@H](C)[C@H](O)[C@H](C)[C@H]2OC(=O)/C=C/C=C/[C@H](C)[C@@H]([C@@H](C)[C@@H](O)[C@H](C)[C@@]3(OC)C[C@@H](O[C@H]4C[C@H](O)[C@H](O)[C@H](C)O4)[C@H](CC)[C@@H](C)O3)OC(=O)/C=C/C=C/[C@@H]2C)C[C@H]1O[C@H]1C[C@H](O)[C@H](O)[C@H](C)O1`, for which the MIC was > 100 µg/mL against Pseudomonas aeruginosa; > 100 µg/mL against Bacillus subtilis; > 100 µg/mL against Escherichia coli; > 100 µg/mL in assay [1]; 1.56 µg/mL (≈ 1.48 µM) with Staphylococcus aureus.
For `CC1(C)S[C@@H]2[C@H](NC(=O)[C@H](N)c3ccccc3)C(=O)N2[C@H]1C(=O)O` [AMPICILLIN], the MIC against Pseudomonas aeruginosa was 1.56 µg/mL (≈ 4.46 µM); against Bacillus subtilis it was 0.78 µg/mL (≈ 2.23 µM); in the assay with Escherichia coli it was 6.25 µg/mL (≈ 17.9 µM); in assay [1], > 100 µg/mL; with Staphylococcus aureus it was 0.78 µg/mL (≈ 2.23 µM).

The values above are taken from ChEMBL document CHEMBL3739369, “Identification of Elaiophylin Skeletal Variants from the Indonesian Streptomyces sp. ICBB 9297” (2015).
